Values of other authors as cited in PMC5603512, “Discovery, Semisynthesis, Antiparasitic and Cytotoxic Evaluation of 14-Membered Resorcylic Acid Lactones and Their Derivatives” (Scientific Reports, 2017).
Converted amounts (≈) assume the structure as drawn.

Test system: P. falciparum lines K1
Settings: cited from earlier work

SMILES	IC50 against P. falciparum line K1
C[C@H]1C/C=C/[C@@H](O)[C@@H](O)CC/C=C/c2cc(O)cc(O)c2C(=O)O1 [aigialomycin D]	6.6 µg/mL (≈ 19.7 µM)
COc1cc(O)c2c(c1)[C@H]1O[C@@H]1C[C@H](O)[C@H](O)C(=O)/C=C\C[C@H](C)OC2=O [Hypothemycin]	2.2 µg/mL (≈ 5.81 µM)
